Assay results as given in patent US20230075765A1, “PYRROLO[2,3-D]PYRIMIDINE DERIVATIVE TARGETING EGFR MUTATION, AS WELL AS THE PREPARATIVE METHOD AND THE USE THEREOF” (WEST CHINA HOSPITAL, SICHUAN UNIVERSITY, priority 2020, published 2023).
Like-named read-outs stand apart in the source and are kept apart here.

Legend:
Format in all cases: cell-based, human
[1] = system: normal cells and different lung cancer cell lines; assay: Inhibition of cell proliferation, CCK8 method, comparison in words over the whole cell panel; conditions: BEAS-2B, HBE, H460, A549, H1975, HCC827; CCK8, 48 h
Protocol: (§1) Compounds 1-9 of the present invention were respectively weighed and dissolved in 1 ml of dimethyl sulfoxide (DMSO), to prepare a 10 mM drug solution, which was stored in a refrigerator at −20° C. in the dark after packaging. The stock solution was diluted with the corresponding culture medium to the required concentration just before the experiment.
(§2) HBE cells and BEAS-2B cells are normal lung bronchial epithelial cell lines, and both cells were cultured in DMEM high glucose medium (supplemented with 10% fetal bovine serum and 1% double antibody) to the logarithmic growth phase; H460 cells, A549 cells, H1975 cells and HCC827 cells are lung cancer cell lines, and all of them were cultured in RPMI1640 medium (supplemented with 10% fetal bovine serum and 1% double antibody) to the logarithmic growth phase. Among them, H1975 cells and HCC827 cells are EGFR mutant cells.
(§3) When the cells were cultured to 90% of the growth density, the cells were digested with 0.25% trypsin to prepare a single cell suspension. The cells were counted, and then seeded in a 96-well plate at a density of 5000 cells/well, 100 μl for each well. The culture plate was moved into a CO2 incubator and incubated for 24 h at 37° C. and 5% CO2. Compounds at different concentrations were added to each well, 5 replicate wells for each concentration, and the cells were treated with the compounds for 48 hours. CCK8 detection reagent was added to each well according to the operation manual, and then the plate was further incubated for 1 h before terminating the culture. 450 nm wavelength was chosen, and the absorbance value of each well was adjusted on the microplate ELISA analyzer. The result was recorded. […] was taken as the horizontal axis, and absorbance as the vertical axis to plot a curve. The half inhibitory concentration (IC50) was calculated by Bliss method. Each experiment was repeated at least 3 times.
(§4) Normal lung cell lines and different lung cancer cell lines were selected for experiments. Amongst, the compound with high anti-cancer activity was screened, whose anti-tumor activity was further studied.

[2] = system: HCC827 cells; assay: Inhibition of cell proliferation, CCK8 method; conditions: HCC827 EGFR mutant cells, 48 h, CCK8, read-out: Inhibitory activity (IC50) against HCC827
Protocol: (§5) The stock solution was diluted with the corresponding culture medium to the required concentration just before the experiment.
as §2
as §3, with “The” for “When the cells were cultured to 90% of the growth density, the cells were digested with 0.25% trypsin to prepare a single cell suspension. The”
(§6) Normal lung cell lines and different lung cancer cell lines were selected for experiments.

[3] = system: H1975 cells; assay: Inhibition of cell proliferation, CCK8 method; conditions: H1975 EGFR mutant cells, 48 h, read-out: Inhibitory activity (IC50) against H1975
Protocol: as §5, §2
as §3, with “The” for “When the cells were cultured to 90% of the growth density, the cells were digested with 0.25% trypsin to prepare a single cell suspension. The”
as §6

[4] = system: H460 cells; assay: Inhibition of cell proliferation, CCK8 method; conditions: 48 h, read-out: Inhibitory activity (IC50) against H460
Protocol: as §1, §2, §3, §4

[5] = system: BEAS-2B cells; assay: Inhibition of cell proliferation, CCK8 method; conditions: BEAS-2B normal bronchial epithelial cells, 48 h, read-out: Inhibitory activity (IC50) against BEAS-2B
Protocol: as §1, §2, §3, §4

[6] = system: A549 cells; assay: Inhibition of cell proliferation, CCK8 method; conditions: A549 lung adenocarcinoma cells, 48 h, read-out: Inhibitory activity (IC50) against A549
Protocol: as §1, §2, §3, §4

[7] = system: HCC827 cells; assay: Cell cycle, PI staining, flow cytometry; conditions: 18 h (control 33.66)
Protocol: (§7) A variety of different cells in the logarithmic growth phase were inoculated evenly in a 6-well plate at a concentration of 1×10^6 cells/well, 2 ml for each well, and then incubated overnight. Then, different compounds were added, and each compound was set different concentrations. After 18 h, the cells were collected, resuspended in PBS, and centrifuged to remove the supernatant, to which was then added 0.5 ml of pre-cooled 75% absolute ethanol dropwise, followed by vortexing to mix the cells and standing overnight at 4° C. The solution was centrifuged at 1000 rpm/min for 4 min, and the supernatant was discarded. Propidium iodide staining solution was prepared by using 5.6 ml staining buffer, 210 μl propidium iodide staining solution (25×), and 56 μl RNaseA (2.5 mg/ml). 0.4 ml of propidium iodide staining solution was added to each tube to resuspend the cells, and then incubated for 30 min at room temperature in the dark. The cell suspension was gently pipetted to mix, filtered into a flow tube, and stored in the dark at 4° C. The cells were detected on the flow cytometer within 1 h.

[8] = system: H1975 cells; assay: Cell cycle, PI staining, flow cytometry; conditions: 18 h (control 30.25)
Protocol: as §7

[9] = system: HCC827 cells; assay: Apoptosis, Annexin V-FITC/PI double staining, flow cytometry; conditions: 18 h (control 10.8)
Protocol: (§8) Apoptosis was detected by Annexin V-FITC/PI double staining method. A variety of different cells in the logarithmic growth phase were inoculated evenly in a 6-well plate at a concentration of 1×10^6 cells/well, 2 ml for each well, and then incubated overnight. Then, different compounds were added, and each compound was set different concentrations. After 18 h, the cells were collected with 0.25% trypsin without EDTA and washed twice with PBS solution. Then, the cells were stained by the apoptosis detection kit according to the instructions, and analyzed by flow cytometry.
(§9) In the experiment, human lung cancer cells HCC827 cells and H1975 cells were selected as the detection system. The control group was a blank control (DMSO). The test concentrations of the compounds were 0.5 μM and 5 μM. After treatment with the compounds for 18 h, the flow cytometry was used for detection. In the apoptosis result graph, the cells in quadrant E1 are necrotic cells, the cells in quadrant E2 are late apoptotic cells, the cells in quadrant E3 area represent live cells, and the cells in quadrant E4 are early apoptotic cells.

[10] = system: H1975 cells; assay: as above; conditions: 18 h (control 9.2)
Protocol: as §8, §9

[11] = system: HBE cells; assay: Inhibition of cell proliferation, CCK8 method; conditions: HBE normal bronchial epithelial cells, 48 h, CCK8; read-out: Inhibitory activity (IC50) against HBE
Protocol: as §5, §2
as §3, with “The” for “When the cells were cultured to 90% of the growth density, the cells were digested with 0.25% trypsin to prepare a single cell suspension. The”
as §6

[12] = H460 large cell lung cancer cells

| IC50 ([2]; Homo sapiens) [µM] | IC50 ([4]; Homo sapiens, NCI-H460, H460 large cell lung cancer cells) [µM] | IC50 ([6]; Homo sapiens) [µM] | Structure (SMILES) | inhibitory effect on different cell lines (in words) [1] | IC50 [2] [µM] | IC50 [3] [µM] | IC50 [4, 12] [µM] | IC50 [5] [µM] | IC50 [6] [µM] | S phase (%) ([7]; 0.5 μM) | S phase (%) ([7]; 5 μM) | S phase (%) ([8]; 0.5 μM) | S phase (%) ([8]; 5 μM) | Total apoptosis rate (%) ([9]; 0.5 μM) | Total apoptosis rate (%) ([9]; 5 μM) | Total apoptosis rate (%) ([10]; 0.5 μM) | Total apoptosis rate (%) ([10]; 5 μM) | IC50 ([5]; Homo sapiens) [µM] | IC50 [11] [µM] |
| --- | --- | --- | --- | --- | --- | --- | --- | --- | --- | --- | --- | --- | --- | --- | --- | --- | --- | --- | --- |
|  |  |  | C=CC(=O)Nc1cccc(Oc2nc(Nc3ccc(N4CCN(C)CC4)c(F)c3)nc3[nH]ccc23)c1 [Compound 1] | basically the same as that of the positive control | 0.1 | 2.06 | 6.02 | 3.68 | 1.92 |  |  |  |  |  |  |  |  |  |  |
| 0.11 | 5.68 | 2.01 | C=CC(=O)Nc1cccc(Oc2nc(Nc3ccc(N4CCN(C)CC4)c(F)c3)nc3[nH]ccc23)c1 [Avitinib, reference compound] |  |  |  |  |  |  | 9.09 | 10.83 | 3.74 | 13.19 | 30.3 | 35.4 | 9.5 | 11.7 | 4.11 |  |
|  |  |  | C=CC(=O)Nc1cccc(Oc2nc(Nc3ccc(N4CCN(C)CC4)cc3)nc3[nH]ccc23)c1 [Compound 3] | lower | 0.24 | 22 | 36 | 23.8 | 9.92 |  |  |  |  |  |  |  |  |  | 28.1 |
